Drawing on patent US9018383B2, “Acylamino-substituted cyclic carboxylic acid derivatives and their use as pharmaceuticals” (Sanofi, priority 2009, dated 2015), this text covers IC50 for 31 compounds.

Molecules are shown by their SMILES.

In the experiment the target is human Edg-2 receptor (Homo sapiens, UniProt Q92633). Briefly: Determination of Edg-2 receptor inhibition by FLIPR measurements (LPA-mediated calcium liberation). It counts as cell-based. The note with it: CHO cells overexpressing human Edg-2 receptor, LPA 100 nM, fluo-4 calcium fluorescence; read-out: Inhibitory concentrations IC50 for inhibition of the Edg-2 receptor. The method, then: A) Determination of Edg-2 Receptor Inhibition by Fluorescence Imaging Plate Reader (FLIPR) Measurements
human Edg-2 receptor, sequence (Q92633 whole entry): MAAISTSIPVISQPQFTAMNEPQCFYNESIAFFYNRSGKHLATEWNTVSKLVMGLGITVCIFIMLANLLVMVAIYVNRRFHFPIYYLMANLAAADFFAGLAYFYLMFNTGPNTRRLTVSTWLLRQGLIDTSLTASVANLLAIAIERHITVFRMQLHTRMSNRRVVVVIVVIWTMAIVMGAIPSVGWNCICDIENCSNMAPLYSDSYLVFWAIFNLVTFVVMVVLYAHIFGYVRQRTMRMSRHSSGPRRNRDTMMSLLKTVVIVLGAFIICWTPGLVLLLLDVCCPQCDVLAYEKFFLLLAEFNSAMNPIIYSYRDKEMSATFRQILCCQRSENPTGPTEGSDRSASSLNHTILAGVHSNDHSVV
The inhibition of the Edg-2 receptor (LPA1 receptor) by the compounds of the invention was quantified by the inhibitory effect on the LPA-mediated calcium liberation in a cell-based calcium fluorescence assay by use of Chinese hamster ovarian (CHO) cells in which the human Edg-2 receptor was stably overexpressed (Flp-In system, Invitrogen). […] Changes in intracellular calcium were determined by fluorescence measurement with the calcium-sensitive dye fluo-4 (Invitrogen) in a fluorescence imaging plate reader (FLIPR, […]).
CHO cells stably overexpressing the human Edg-2 receptor were seeded (40.000 per well) in black clear-bottomed poly-D-lysine-coated 96 well plates (Becton Dickinson, Biocoat cellware) approximately 18-24 h prior to the experiments. Cells were grown in an incubator at 37° C., 5% carbon dioxide and 95% humidity in cell culture media based on F-12 glutamax media (Gibco, #31765) supplemented with 1% (vol/vol) penicilline/streptomycine (PAN, #P06-07100), 10% (vol/vol) fetal calf serum (FCS, PAA, #A15-151) and hygromycin B (Invitrogen, #10687-010) 300 mg/l (final concentrations).
Prior to the FLIPR experiment, cells were loaded with fluo-4 acetoxymethyl ester (fluo-4 AM, Invitrogen, #F14202) for 60 min in an incubator at 37° C., 5% carbon dioxide and 95% humidity in dye-loading buffer consisting of Hanks' Balanced Salt Solution (HBSS, Invitrogen, #14065049) supplemented with fluo-4 AM at 2 μM (all data given for final concentration), Pluronic® F-127 0.05% (vol/vol) (Invitrogen, #P-3000 MP), HEPES 20 mM (Gibco, #15630), probenecid 2.5 mM (Sigma, #P-8761) and bovine serum albumin 0.05% (BSA, Sigma, #A-6003), adjusted to pH 7.5 with sodium hydroxide. During cell loading, fluo-4 AM is cleaved by intracellular esterase resulting in trapping of the dye fluo-4 within the cells. Loading was terminated by washing of the cells in a cell washer (Tecan Power washer) three times with the buffer specified afore but without fluo-4 AM and BSA. This latter buffer was also used as the buffer in the subsequent cell fluorescence measurements.
The dye-loaded and washed cells were pre-incubated for approximately 5 min with various concentrations of the test compound added as a solution in DMSO (0.3% vol/vol maximum final concentration of DMSO), or with DMSO in the respective concentration only (positive control). Subsequent addition of LPA (18:1, 1-oleoyl-sn-glycerol 3-phosphate; 100 nM final concentration) leads to liberation of intracellular calcium from internal stores resulting in a large transient increase of the fluo-4 fluorescence signal which was monitored over approximately 3 min. The percent inhibition caused by the test compound was determined from the maximum fluorescence response after LPA addition to cells pre-incubated with the compound as compared to the maximum fluorescence response after LPA addition to cells pre-incubated with DMSO only. All fluorescence values were corrected for the baseline fluorescence values obtained with cells which were pre-incubated with DMSO only and were not treated with LPA (baseline control). All measurements were performed in triplicate. From the percent inhibitions the inhibitory concentration IC50 was determined.
Consider `COc1ccc(C(=O)NC2(C(=O)O)CCCC2C)cc1OCCc1cccc(C)c1` (stereo not shown) [Example 49], for which the IC50 is 1000 to 30000 nM.

In the case of `CCC1CCC(NC(=O)c2ccc(OC)c(OCCc3cccc(C)c3)c2)(C(=O)O)CC1` (stereo not shown) [Example 50], the IC50 was below 100 nM.

For `COc1ccc(C(=O)NC2(C(=O)O)CCCC3(CC2)OCCO3)cc1OCCc1cccc(C)c1` (stereo not shown) [Example 51, 8-[4-Methoxy-3-(2-m-tolyl-ethoxy)-benzoylamino]-1,4-dioxa-spiro[4.6]undecane-8-carboxylic acid], the IC50 was below 100 nM.

As for `COc1ccc(C(=O)NC2(C(=O)O)CCCC(=O)CC2)cc1OCCc1cccc(C)c1` (stereo not shown) [Example 52, 1-[4-Methoxy-3-(2-m-tolyl-ethoxy)-benzoylamino]-4-oxo-cycloheptanecarboxylic acid], the IC50 was 1000 to 30000 nM.

Consider `COc1ccc(C(=O)NC2(C(=O)O)CCCC(O)CC2)cc1OCCc1cccc(C)c1` (stereo not shown) [Example 53, 4-Hydroxy-1-[4-methoxy-3-(2-m-tolyl-ethoxy)-benzoylamino]-cycloheptanecarboxylic acid], for which the IC50 fell in the range of 100 to 1000 nM.

Turning to `COc1ccc(C(=O)NC2(C(=O)O)CCC3(CC2)OCCO3)cc1OCCc1cccc(C)c1` [Example 54, 8-[4-Methoxy-3-(2-m-tolyl-ethoxy)-benzoylamino]-1,4-dioxa-spiro[4.5]decane-8-carboxylic acid], the IC50 is below 100 nM.

`COc1ccc(C(=O)NC2(C(=O)O)CCC(=O)CC2)cc1OCCc1cccc(C)c1` [Example 55, 1-[4-Methoxy-3-(2-m-tolyl-ethoxy)-benzoylamino]-4-oxo-cyclohexanecarboxylic acid]: the IC50 lay in the range of 100 to 1000 nM.

On to `C=C1CCC(NC(=O)c2ccc(OC)c(OCCc3cccc(C)c3)c2)(C(=O)O)CC1` [Example 56, 1-[4-Methoxy-3-(2-m-tolyl-ethoxy)-benzoylamino]-4-methylene-cyclohexanecarboxylic acid], for which the IC50 was below 100 nM.

With `COc1ccc(C(=O)NC2(C(=O)O)CCC3(CC3)CC2)cc1OCCc1cccc(C)c1` [Example 57, 6-[4-Methoxy-3-(2-m-tolyl-ethoxy)-benzoylamino]-spiro[2.5]octane-6-carboxylic acid], the IC50 is below 100 nM.

As for `COc1ccc(C(=O)NC2(C(=O)O)CCC(CO)CC2)cc1OCCc1cccc(C)c1` (stereo not shown) [Example 58, 4-Hydroxymethyl-1-[4-methoxy-3-(2-m-tolyl-ethoxy)-benzoylamino]-cyclohexanecarboxylic acid], the IC50 was 1000 to 30000 nM.

As to `COc1ccc(C(=O)NC2(C(=O)O)CCC(CF)CC2)cc1OCCc1cccc(C)c1` (stereo not shown) [Example 59, 4-Fluoromethyl-1-[4-methoxy-3-(2-m-tolyl-ethoxy)-benzoylamino]-cyclohexanecarboxylic acid], the IC50 is below 100 nM.

On to `CC(=O)c1ccc(C(=O)NC2(C(=O)O)CCCCCC2)cc1OCCc1cccc(C)c1` [Example 60, 1-[4-Acetyl-3-(2-m-tolyl-ethoxy)-benzoylamino]-cycloheptanecarboxylic acid], for which the IC50 was in the range of 100 to 1000 nM.

Take `Cc1cccc(CCOc2cc(C(=O)NC3(C(=O)O)CCCCCC3)ccc2C(C)O)c1` (stereo not shown) [Example 61, 1-[4-(1-Hydroxy-ethyl)-3-(2-m-tolyl-ethoxy)-benzoylamino]-cycloheptanecarboxylic acid]: the IC50 was in the range of 100 to 1000 nM.

Consider `CCc1ccc(C(=O)NC2(C(=O)O)CCCCCC2)cc1OCCc1cccc(C)c1` [Example 62, 1-[4-Ethyl-3-(2-m-tolyl-ethoxy)-benzoylamino]-cycloheptanecarboxylic acid], for which the IC50 is below 100 nM.

As for `Cc1cccc(CCOc2cc(C(=O)NC3(C(=O)O)CCCCCC3)ccc2C(C)F)c1` (stereo not shown) [Example 63, 1-[4-(1-Fluoro-ethyl)-3-(2-m-tolyl-ethoxy)-benzoylamino]-cycloheptanecarboxylic acid], the IC50 is below 100 nM.

As to `Cc1cccc(CCOc2cc(C(=O)NC3(C(=O)O)CCCCCC3)ccc2Cl)c1` [Example 64, 1-[4-Chloro-3-(2-m-tolyl-ethoxy)-benzoylamino]-cycloheptanecarboxylic acid], the IC50 was 100 to 1000 nM.

With `Cc1cccc(CCOc2cc(C(=O)NC3(C(=O)O)CCCCCC3)ccc2Br)c1` [Example 65, 1-[4-Bromo-3-(2-m-tolyl-ethoxy)-benzoylamino]-cycloheptanecarboxylic acid], the IC50 was below 100 nM.

Take `COc1ccc(C(=O)NC2(C(=O)O)CCCC2OC)cc1OCCc1cccc(C)c1` (stereo not shown) [Example 68, 2-Methoxy-1-[4-methoxy-3-(2-m-tolyl-ethoxy)-benzoylamino]-cyclopentanecarboxylic acid]: the IC50 is below 100 nM.

As to `COc1ccc(C(=O)NC2(C(=O)O)CCCCCC2)c(F)c1OCCc1cccc(C)c1` [Example 69, 1-[2-Fluoro-4-methoxy-3-(2-m-tolyl-ethoxy)-benzoylamino]-cycloheptanecarboxylic acid], the IC50 fell in the range of 100 to 1000 nM.

With `COc1c(F)cc(C(=O)NC2(C(=O)O)CCCCCC2)cc1OCCc1cccc(C)c1` [Example 70, 1-[3-Fluoro-4-methoxy-5-(2-m-tolyl-ethoxy)-benzoylamino]-cycloheptanecarboxylic acid], the IC50 is below 100 nM.

Take `COc1ccc(C(=O)NC2(C(=O)O)CCCCCC2)cc1OCC(F)(F)c1ccccc1` [Example 71, 1-[3-(2,2-Difluoro-2-phenyl-ethoxy)-4-methoxy-benzoylamino]-cycloheptanecarboxylic acid]: the IC50 is below 100 nM.

For `COc1ccc(C(=O)NC2(C(=O)O)CCCCCC2)cc1CCCc1cccc(C)c1` [Example 72, 1-[4-Methoxy-3-(3-m-tolyl-propyl)-benzoylamino]-cycloheptanecarboxylic acid], the IC50 was below 100 nM.

For `COc1ccc(C(=O)NC2(C(=O)O)CCCCCC2)cc1OCC(O)c1cccc(C)c1` (stereo not shown) [Example 73, 1-[3-(2-Hydroxy-2-m-tolyl-ethoxy)-4-methoxy-benzoylamino]-cycloheptanecarboxylic acid], the IC50 fell in the range of 1000 to 30000 nM.

Take `COc1ccc(C(=O)NC2(C(=O)O)CCC=CCC2)cc1OCCc1cccc(C)c1` [Example 74, 1-[4-Methoxy-3-(2-m-tolyl-ethoxy)-benzoylamino]-cyclohept-4-enecarboxylic acid]: the IC50 was below 100 nM.

As for `COc1ccc(C(=O)NC2(C(=O)O)CCC3CC3CC2)cc1OCCc1cccc(C)c1` (stereo not shown) [Example 75], the IC50 is below 100 nM.

As for `COc1ccc(C(=O)NC2(C(=O)O)CC(C)C2)cc1OCCc1cccc(C)c1` (stereo not shown) [Example 76, 1-[4-Methoxy-3-(2-m-tolyl-ethoxy)-benzoylamino]-3-methyl-cyclobutanecarboxylic acid], the IC50 is below 100 nM.

For the compound `COc1ncc(C(=O)NC2(C(=O)O)CCCCCC2)cc1OCCc1cccc(C)c1` [Example 77, 1-{[6-Methoxy-5-(2-m-tolyl-ethoxy)-pyridine-3-carbonyl]-amino}-cycloheptanecarboxylic acid], the IC50 is below 100 nM.

For the compound `COc1ncc(C(=O)NC2(C(=O)O)CCCCCCC2)cc1OCCc1cccc(C)c1` [Example 78, 1-{[6-Methoxy-5-(2-m-tolyl-ethoxy)-pyridine-3-carbonyl]-amino}-cyclooctanecarboxylic acid], the IC50 fell in the range of 100 to 1000 nM.

In the case of `COc1ncc(C(=O)N[C@]2(C(=O)O)CC[C@H](C)CC2)cc1OCCc1cccc(C)c1` [Example 79, cis-1-{[6-Methoxy-5-(2-m-tolyl-ethoxy)-pyridine-3-carbonyl]-amino}-4-methyl-cyclohexanecarboxylic acid], the IC50 was below 100 nM.

In the case of `COc1ncc(C(=O)N[C@]2(C(=O)O)CC[C@@H](C)CC2)cc1OCCc1cccc(C)c1` [Example 80, trans-1-{[6-Methoxy-5-(2-m-tolyl-ethoxy)-pyridine-3-carbonyl]-amino}-4-methyl-cyclohexanecarboxylic acid], the IC50 is below 100 nM.

`COc1ncc(C(=O)N[C@]2(C(=O)O)CC[C@@H](C)CC2)cc1OCCc1cc(Cl)ccc1F` [Example 81, trans-1-({5-[2-(5-Chloro-2-fluoro-phenyl)-ethoxy]-6-methoxy-pyridine-3-carbonyl}-amino)-4-methyl-cyclohexanecarboxylic acid]: the IC50 was below 100 nM.
